Data: US5846720A, “Methods of determining chemicals that modulate expression of genes associated with cardiovascular disease” (Oncogene Science, Inc., priority 1996, dated 1998)

Key:
hGH promoter = assay: hGH promoter/luciferase reporter assay (high-throughput screen I), 532 cells; format: cell-based, rat; conditions: Table 2, 6 h incubation; for hGH fold induction relative to solvent control: transcriptional activators; for hGH fold inhibition relative to solvent control: transcriptional inhibitors
Source text: 6. a GC rat pituitary cell line, transfected with the growth hormone reporter plasmid, designated 532, deposited under ATCC Accession No. CRL 10663.

MMTV promoter = assay: MMTV promoter/luciferase reporter assay (high-throughput screen I, control for specificity), M10 cells; format: cell-based, mouse; conditions: Table 2, 6 h incubation; for MMTV fold induction relative to solvent control: transcriptional activators, original high-throughput assay; for MMTV fold inhibition relative to solvent control: transcriptional inhibitors
Method: pMluci and pSV2Neo, an antibiotic resistance plasmid (84), were co-transfected into NIH/3T3 mouse fibroblast cells using the calcium phosphate precipitation method (85) with a commercially available kit (Pharmacia, Piscataway N.J.). Two days later, cells were transferred to media containing 0.4 mg/ml G418 and were grown for an additional 10-14 days. G418-resistant clones were isolated by standard methods. Once sufficient cell numbers were obtained, clones were analyzed based on several criteria: constitutive luciferase production, induction of luciferase expression by dexamethasone ([…], Sigma, St. Louis, Mo.), satisfactory attachment to microtiter plates used in the high-throughput screen (see section G) and acceptable standard deviation in multiple luciferase expression assays (see below for assay protocol). This analysis was carried out using the luciferase assay conditions described above. Of the clones which satisfied the above criteria for the high throughput screen, one clone, M10, was selected for use.

G-CSF promoter = assay: G-CSF promoter/luciferase reporter assay (high-throughput screen I), G21 cells; conditions: Table 2, 6 h incubation; for GCSF fold induction relative to solvent control: transcriptional activators; for GCSF fold inhibition relative to solvent control: transcriptional inhibitors

Row | SMILES | hGH fold induction relative to solvent control (hGH promoter) [fold] | MMTV fold induction relative to solvent control (MMTV promoter) [fold] | GCSF fold induction relative to solvent control (G-CSF promoter) [fold] | hGH fold inhibition relative to solvent control (hGH promoter) [fold] | MMTV fold inhibition relative to solvent control (MMTV promoter) [fold] | GCSF fold inhibition relative to solvent control (G-CSF promoter) [fold]
1 | Nc1c(Cl)c(Cl)nc(C(=O)O)c1Cl [Chemical 1561] | 8.05 | 0.48 | 0.23 |  |  | 
2 | Brc1ccc2c3c(cccc13)CC2 [Chemical 1573] | 0.34 | 4.30 | 1.49 |  |  | 
3 | Nc1ncnc2c1nc(Br)n2[C@@H]1O[C@H](CO)[C@@H](O)[C@H]1O [Chemical 1583] | 0.12 | 0.88 | 5.82 |  |  | 
4 | Cc1ccc(P(CCP(c2ccc(C)cc2)c2ccc(C)cc2)c2ccc(C)cc2)cc1 [Chemical 1591] |  |  |  | 5.55 | 0.96 | 0.56
5 | CC1(C)[C@@H](C(=O)OCC(F)(F)C(F)(F)C(F)(F)C(F)(F)C(F)(F)C(F)F)CC[C@@]1(C)C(=O)OCC(F)(F)C(F)(F)C(F)(F)C(F)(F)C(F)(F)C(F)F [Chemical 1592] | 0.74 | 1.34 | 3.20 |  |  | 
6 | O=C(Nc1cccc(C2=NCCN2)c1)Nc1cccc(C2=NCCN2)c1 [Chemical 1598] | 5.32 | 1.27 | 0.72 |  |  | 
7 | O=S(=O)(O)c1ccc(-c2nnc(-c3ccnc(-c4nnc(-c5ccc(S(=O)(=O)O)cc5)c(-c5ccc(S(=O)(=O)O)cc5)n4)c3)nc2-c2ccc(S(=O)(=O)O)cc2)cc1 [Chemical 1604] |  |  |  | 5.00 | 0.97 | 0.77
8 | CC1(C)[C@H]2CC[C@]1(C)[C@H](O)C2 [Chemical 1635] |  |  |  | 9.09 | 0.99 | 0.71
9 | C(=Cc1ccccn1)c1ccccn1 [Chemical 1640] |  |  |  | 5.00 | 0.59 | 0.79
10 | c1ccc(-c2nccnc2-c2ccccn2)nc1 [Chemical 1641] |  |  |  | 5.55 | 0.60 | 0.83
11 | O=S(=O)(O)c1ccc(-c2ccnc(-c3nnc(-c4ccc(S(=O)(=O)O)cc4)c(-c4ccc(S(=O)(=O)O)cc4)n3)c2)cc1 [Chemical 1648] |  |  |  | 7.69 | 1.00 | 0.86
12 | COC(=O)CP(=O)(OCC(F)(F)F)OCC(F)(F)F [Chemical 1651] |  |  |  | 3.57 | 0.70 | 0.69
13 | O=C(O)c1cc(C(F)(F)F)ccc1C(F)(F)F [Chemical 1655] |  |  |  | 4.76 | 0.81 | 0.54
14 | OCC1CC2C3CC(CO)C(C3)C2C1 (stereo not drawn) [Chemical 1678] | 7.08 | 0.89 | 0.36 |  |  | 
15 | N#Cc1cccc(Br)c1 [Chemical 1703] |  |  |  | 10.00 | 0.90 | 0.76
16 | N#Cc1ccc(Br)cc1 [Chemical 1704] |  |  |  | 4.16 | 0.94 | 0.77
17 | O=C(c1ccccc1)c1ccc(Br)cc1 [Chemical 1705] |  |  |  | 14.28 | 0.62 | 0.54

Row | SMILES | hGH fold induction relative to solvent control (hGH promoter) [fold] | MMTV fold induction relative to solvent control (MMTV promoter) [fold] | GCSF fold induction relative to solvent control (G-CSF promoter) [fold] | hGH fold inhibition relative to solvent control (hGH promoter) [fold] | MMTV fold inhibition relative to solvent control (MMTV promoter) [fold] | GCSF fold inhibition relative to solvent control (G-CSF promoter) [fold]
18 | Cc1cc(=O)oc2c(CN(CC(=O)O)CC(=O)O)c(O)ccc12 [Chemical 1712] |  |  |  | 8.33 | 0.94 | 0.74
19 | CC1(C)[C@H]2CC[C@]1(C)C(=O)C2 [Chemical 1720] |  |  |  | 4.76 | 0.66 | 0.65
20 | CCOC(=O)c1c[nH]c(=S)[nH]c1=O [Chemical 1740] | 17.77 | 0.87 | 0.74 |  |  | 
21 | N[C@@H](CCCCNC(=O)OCc1ccccc1)C(=O)O [Chemical 1747] | 6.16 | 0.86 | 0.78 |  |  | 
22 | Cc1cc(=O)oc2cc(OCC(=O)O)ccc12 [Chemical 1764] |  |  |  | 7.14 | 0.82 | 0.55
23 | Cc1c(C(=O)O)c(O)cc2c1C(=O)c1c(O)c([C@@H]3O[C@H](CO)[C@@H](O)[C@H](O)[C@H]3O)c(O)c(O)c1C2=O [Chemical 1770] |  |  |  | 10.00 | 0.57 | 0.54
24 | NCCC(=O)N[C@@H](Cc1cnc[nH]1)C(=O)O [Chemical 1771] |  |  |  | 10.00 | 0.72 | 0.71
25 | Cc1cc(C2(c3cc(C)c(O)c(CN(CC(=O)O)CC(=O)O)c3)OC(=O)c3ccccc32)cc(CN(CC(=O)O)CC(=O)O)c1O [Chemical 1773] |  |  |  | 10.00 | 0.67 | 0.62
26 | N=c1cc2oc3cc(N)ccc3nc-2c2ccccc12 [Chemical 1776] | 0.15 | 1.36 | 3.50 |  |  | 
27 | CN(C)C(=S)SCC#N [Chemical 1793] | 0.52 | 1.21 | 9.50 |  |  | 
28 | O=C(O)C1CCC1 [Chemical 1804] | 9.41 | 0.49 | 1.05 |  |  | 
29 | O=c1[nH]c(=O)c2nc3ccccc3nc2[nH]1 [Chemical 1890] |  |  |  | 5.26 | 0.58 | 0.80
30 | Nc1c2ccccc2nc2ccccc12 [Chemical 1904] | 0.54 | 0.82 | 4.12 |  |  | 
31 | Brc1cccc(-c2ccccc2)c1 [Chemical 1994] | 0.34 | 0.63 | 3.29 |  |  | 
32 | CC(C)(C)c1ccc(Br)cc1 [Chemical 2001] | 0.74 | 1.12 | 3.11 |  |  | 
33 | Cc1n[nH]c(C)c1Br [Chemical 2009] |  |  |  | 0.57 | 0.64 | 3.70
34 | Nc1c(Br)cc([N+](=O)[O-])cc1[N+](=O)[O-] [Chemical 2010] |  |  |  | 0.63 | 3.57 | 0.80
